Assay: mn = molality of the nth substance listed, in mol/kg
Conditions: 101 kPa, Liquid; for viscosity: Capillary tube (Ostwald / Ubbelohde) method; for electrical conductivity: Direct current cell with electrodes; for mass density: Vibrating tube method

CCC[N+]1(C)CCCCC1.[Br-] [1-methyl-1-propylpiperidinium bromide] + O
Conditions | electrical conductivity [S/m] | mass density [kg/m3] | viscosity [mPa·s]
293.15 K, m1 = 0.2501 | 1.61 | 1008.72 | 1.291
293.15 K, m1 = 0.5 | 2.44 | 1018.24 | 1.402
293.15 K, m1 = 0.75 | 3.08 | 1027.42 | 1.529
293.15 K, m1 = 0.9998 | 3.57 | 1036.22 | 1.669
293.15 K, m1 = 1.25 | 3.91 | 1044.44 | 1.84
293.15 K, m1 = 1.5 | 4.14 | 1052.29 | 2.03
293.15 K, m1 = 1.75 | 4.29 | 1059.77 | 2.216
293.15 K, m1 = 2.001 | 4.38 | 1066.77 | 2.419
293.15 K, m1 = 2.2 | 4.41 | 1072.13 | 2.604
293.15 K, m1 = 2.4 | 4.44 | 1077.21 | 2.792
298.15 K, m1 = 0.2501 | 1.75 | 1007.5 | 1.178
298.15 K, m1 = 0.5 | 2.64 | 1016.88 | 1.259
298.15 K, m1 = 0.75 | 3.33 | 1025.92 | 1.356
298.15 K, m1 = 0.9998 | 3.86 | 1034.59 | 1.466
298.15 K, m1 = 1.25 | 4.23 | 1042.69 | 1.607
298.15 K, m1 = 1.5 | 4.48 | 1050.42 | 1.769
298.15 K, m1 = 1.75 | 4.65 | 1057.79 | 1.922
298.15 K, m1 = 2.001 | 4.76 | 1064.7 | 2.091
298.15 K, m1 = 2.2 | 4.81 | 1069.98 | 2.249
298.15 K, m1 = 2.4 | 4.85 | 1074.98 | 2.408
303.15 K, m1 = 0.2501 | 1.9 | 1006.09 | 1.044
303.15 K, m1 = 0.5 | 2.83 | 1015.33 | 1.116
303.15 K, m1 = 0.75 | 3.57 | 1024.23 | 1.203
303.15 K, m1 = 0.9998 | 4.14 | 1032.75 | 1.302
303.15 K, m1 = 1.25 | 4.54 | 1040.75 | 1.424
303.15 K, m1 = 1.5 | 4.82 | 1048.38 | 1.559
303.15 K, m1 = 1.75 | 5.04 | 1055.64 | 1.688
303.15 K, m1 = 2.001 | 5.18 | 1062.46 | 1.827
303.15 K, m1 = 2.2 | 5.24 | 1067.67 | 1.951
303.15 K, m1 = 2.4 | 5.3 | 1072.61 | 2.073
308.15 K, m1 = 0.2501 | 2.04 | 1004.66 | 0.9225
308.15 K, m1 = 0.5 | 3.03 | 1013.72 | 0.9723
308.15 K, m1 = 0.75 | 3.82 | 1022.62 | 1.037
308.15 K, m1 = 0.9998 | 4.43 | 1030.82 | 1.113
308.15 K, m1 = 1.25 | 4.86 | 1038.67 | 1.206
308.15 K, m1 = 1.5 | 5.16 | 1046.1 | 1.311
308.15 K, m1 = 1.75 | 5.4 | 1053.72 | 1.417
308.15 K, m1 = 2.001 | 5.57 | 1060.11 | 1.53
308.15 K, m1 = 2.2 | 5.65 | 1065.32 | 1.629
308.15 K, m1 = 2.4 | 5.72 | 1070.23 | 1.728

CCCC[N+]1(C)CCCCC1.[Br-] [N-butyl-N-methylpiperidinium bromide] + O
Conditions | electrical conductivity [S/m] | mass density [kg/m3] | viscosity [mPa·s]
293.15 K, m1 = 0.25 | 1.58 | 1008.15 | 1.271
293.15 K, m1 = 0.5006 | 2.29 | 1017.18 | 1.451
293.15 K, m1 = 0.7499 | 2.83 | 1025.78 | 1.631
293.15 K, m1 = 0.9999 | 3.23 | 1034.01 | 1.819
293.15 K, m1 = 1.25 | 3.5 | 1041.71 | 2.004
293.15 K, m1 = 1.5 | 3.66 | 1049.03 | 2.199
293.15 K, m1 = 1.75 | 3.77 | 1055.94 | 2.422
293.15 K, m1 = 2 | 3.83 | 1062.38 | 2.663
293.15 K, m1 = 2.2 | 3.85 | 1067.29 | 2.863
293.15 K, m1 = 2.4 | 3.87 | 1071.91 | 3.084
298.15 K, m1 = 0.25 | 1.64 | 1006.6 | 1.114
298.15 K, m1 = 0.5006 | 2.44 | 1015.55 | 1.283
298.15 K, m1 = 0.7499 | 3.04 | 1024.1 | 1.442
298.15 K, m1 = 0.9999 | 3.49 | 1032.29 | 1.598
298.15 K, m1 = 1.25 | 3.78 | 1039.86 | 1.75
298.15 K, m1 = 1.5 | 3.96 | 1047.06 | 1.907
298.15 K, m1 = 1.75 | 4.08 | 1053.87 | 2.087
298.15 K, m1 = 2 | 4.15 | 1060.17 | 2.287
298.15 K, m1 = 2.2 | 4.17 | 1064.99 | 2.457
298.15 K, m1 = 2.4 | 4.2 | 1069.52 | 2.649
303.15 K, m1 = 0.25 | 1.77 | 1004.71 | 0.9885
303.15 K, m1 = 0.5006 | 2.61 | 1013.61 | 1.133
303.15 K, m1 = 0.7499 | 3.26 | 1022.18 | 1.266
303.15 K, m1 = 0.9999 | 3.75 | 1030.35 | 1.394
303.15 K, m1 = 1.25 | 4.09 | 1037.65 | 1.528
303.15 K, m1 = 1.5 | 4.32 | 1044.94 | 1.67
303.15 K, m1 = 1.75 | 4.48 | 1051.69 | 1.812
303.15 K, m1 = 2 | 4.57 | 1057.79 | 1.972
303.15 K, m1 = 2.2 | 4.6 | 1062.59 | 2.119
303.15 K, m1 = 2.4 | 4.63 | 1066.98 | 2.279
308.15 K, m1 = 0.25 | 1.86 | 1002.93 | 0.882
308.15 K, m1 = 0.5006 | 2.77 | 1011.89 | 0.98
308.15 K, m1 = 0.7499 | 3.47 | 1020.33 | 1.078
308.15 K, m1 = 0.9999 | 4.01 | 1028.69 | 1.179
308.15 K, m1 = 1.25 | 4.39 | 1035.69 | 1.282
308.15 K, m1 = 1.5 | 4.64 | 1043.08 | 1.392
308.15 K, m1 = 1.75 | 4.82 | 1049.51 | 1.511
308.15 K, m1 = 2 | 4.92 | 1055.41 | 1.639
308.15 K, m1 = 2.2 | 4.96 | 1060.23 | 1.749
308.15 K, m1 = 2.4 | 4.99 | 1064.28 | 1.868

CC[N+]1(C)CCCCC1.[Br-] [N-ethyl-N-methylpiperidinium bromide] + O
Conditions | electrical conductivity [S/m] | mass density [kg/m3] | viscosity [mPa·s]
293.15 K, m1 = 0.2501 | 1.67 | 1009.34 | 1.412
293.15 K, m1 = 0.5 | 2.69 | 1019.49 | 1.432
293.15 K, m1 = 0.75 | 3.46 | 1029.24 | 1.492
293.15 K, m1 = 0.9992 | 4.01 | 1038.65 | 1.587
293.15 K, m1 = 1.25 | 4.41 | 1047.4 | 1.707
293.15 K, m1 = 1.5 | 4.68 | 1055.5 | 1.849
293.15 K, m1 = 1.75 | 4.84 | 1063.82 | 2.021
293.15 K, m1 = 1.998 | 4.94 | 1071.67 | 2.208
293.15 K, m1 = 2.2 | 5.03 | 1077.12 | 2.361
293.15 K, m1 = 2.4 | 5.12 | 1082.45 | 2.521
298.15 K, m1 = 0.2501 | 1.94 | 1007.59 | 1.254
298.15 K, m1 = 0.5 | 2.92 | 1017.73 | 1.274
298.15 K, m1 = 0.75 | 3.72 | 1027.52 | 1.325
298.15 K, m1 = 0.9992 | 4.36 | 1036.99 | 1.401
298.15 K, m1 = 1.25 | 4.82 | 1045.62 | 1.516
298.15 K, m1 = 1.5 | 5.14 | 1053.61 | 1.655
298.15 K, m1 = 1.75 | 5.42 | 1061.89 | 1.787
298.15 K, m1 = 1.998 | 5.61 | 1069.59 | 1.932
298.15 K, m1 = 2.2 | 5.68 | 1074.97 | 2.069
298.15 K, m1 = 2.4 | 5.73 | 1080.2 | 2.2
303.15 K, m1 = 0.2501 | 2.02 | 1005.68 | 1.038
303.15 K, m1 = 0.5 | 3.08 | 1015.67 | 1.091
303.15 K, m1 = 0.75 | 3.95 | 1025.8 | 1.161
303.15 K, m1 = 0.9992 | 4.65 | 1034.64 | 1.248
303.15 K, m1 = 1.25 | 5.15 | 1043.44 | 1.349
303.15 K, m1 = 1.5 | 5.5 | 1051.59 | 1.46
303.15 K, m1 = 1.75 | 5.81 | 1059.87 | 1.583
303.15 K, m1 = 1.998 | 6.02 | 1067.36 | 1.712
303.15 K, m1 = 2.2 | 6.09 | 1072.73 | 1.82
303.15 K, m1 = 2.4 | 6.15 | 1077.82 | 1.931
308.15 K, m1 = 0.2501 | 2.24 | 1003.67 | 0.8791
308.15 K, m1 = 0.5 | 3.29 | 1013.78 | 0.9294
308.15 K, m1 = 0.75 | 4.2 | 1023.78 | 0.9953
308.15 K, m1 = 0.9992 | 4.98 | 1032.63 | 1.074
308.15 K, m1 = 1.25 | 5.54 | 1041.4 | 1.163
308.15 K, m1 = 1.5 | 5.93 | 1049.3 | 1.26
308.15 K, m1 = 1.75 | 6.34 | 1057.7 | 1.363
308.15 K, m1 = 1.998 | 6.61 | 1064.48 | 1.469
308.15 K, m1 = 2.2 | 6.66 | 1070.15 | 1.554
308.15 K, m1 = 2.4 | 6.69 | 1075.12 | 1.639

Reference: the NIST ThermoML archive (doi:10.1016/j.fluid.2014.09.020)
